Test results reported in publication PMC9555642 (PLoS ONE, 2022).
pIC50: −log10 of the molar value.

Columns and labels:
HDAC8 = target: T1, HDAC8 (Homo sapiens, UniProt Q9BY41); experiment: HDAC enzymatic activity (Eurofins); format: biochemical; conditions: Class I; ACY-1083 mean of two separate measurements, Ricolinostat and Tubastatin A one measurement
T1 construct: purchased Eurofins Pharma Discovery Services 2247
T1 sequence (Q9BY41 1-377): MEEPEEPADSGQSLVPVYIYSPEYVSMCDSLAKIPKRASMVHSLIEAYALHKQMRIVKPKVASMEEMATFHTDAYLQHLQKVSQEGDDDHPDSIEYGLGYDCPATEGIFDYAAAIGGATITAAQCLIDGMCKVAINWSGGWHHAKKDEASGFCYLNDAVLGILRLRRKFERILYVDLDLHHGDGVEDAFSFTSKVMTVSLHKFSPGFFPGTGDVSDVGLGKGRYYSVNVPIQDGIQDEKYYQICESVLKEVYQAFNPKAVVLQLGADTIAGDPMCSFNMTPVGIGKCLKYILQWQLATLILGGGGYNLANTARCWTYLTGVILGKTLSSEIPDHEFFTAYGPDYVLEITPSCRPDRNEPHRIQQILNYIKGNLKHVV

HDAC10 = target: T2, HDAC10 (Homo sapiens, UniProt Q969S8); experiment: HDAC enzymatic activity (Eurofins); format: biochemical; conditions: Class IIB; ACY-1083 mean of two separate measurements, Ricolinostat and Tubastatin A one measurement
T2 construct: purchased Eurofins Pharma Discovery Services 2662
T2 sequence (Q969S8 1-669): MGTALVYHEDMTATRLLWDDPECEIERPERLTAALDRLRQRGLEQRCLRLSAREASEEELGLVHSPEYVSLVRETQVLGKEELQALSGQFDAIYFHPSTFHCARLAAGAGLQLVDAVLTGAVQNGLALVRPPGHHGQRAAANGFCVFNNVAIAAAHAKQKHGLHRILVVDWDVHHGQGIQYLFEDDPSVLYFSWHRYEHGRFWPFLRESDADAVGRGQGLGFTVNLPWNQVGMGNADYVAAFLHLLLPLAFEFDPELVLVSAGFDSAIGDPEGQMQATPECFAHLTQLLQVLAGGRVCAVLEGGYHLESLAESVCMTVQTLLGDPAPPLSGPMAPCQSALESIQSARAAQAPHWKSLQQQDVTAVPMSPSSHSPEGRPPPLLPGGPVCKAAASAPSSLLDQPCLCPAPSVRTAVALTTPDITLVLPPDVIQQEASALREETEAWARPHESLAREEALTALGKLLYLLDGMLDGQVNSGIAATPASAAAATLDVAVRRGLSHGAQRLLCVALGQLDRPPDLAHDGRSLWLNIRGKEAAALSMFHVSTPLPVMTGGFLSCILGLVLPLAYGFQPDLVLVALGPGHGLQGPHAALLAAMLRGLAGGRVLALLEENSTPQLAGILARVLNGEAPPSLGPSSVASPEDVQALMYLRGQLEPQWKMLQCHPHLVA

[1] = Plasma protein binding, human blood plasma; format: in vitro ADME
Description: Plasma protein binding analysis was performed as reported previously using human blood plasma samples [52].

Kv4.3 = target: T3, Kv4.3 (Homo sapiens, UniProt Q9UK17); experiment: Cardiovascular ion channel panel, SyncroPatch 384PE patch clamp; format: cell-based; conditions: CHO K1 cell line, room temperature, 6 point cumulative assay
T3 construct: expressed in transfected cells; host or cells: Chinese hamster ovary K1 cell line
T3 sequence (Q9UK17 1-655): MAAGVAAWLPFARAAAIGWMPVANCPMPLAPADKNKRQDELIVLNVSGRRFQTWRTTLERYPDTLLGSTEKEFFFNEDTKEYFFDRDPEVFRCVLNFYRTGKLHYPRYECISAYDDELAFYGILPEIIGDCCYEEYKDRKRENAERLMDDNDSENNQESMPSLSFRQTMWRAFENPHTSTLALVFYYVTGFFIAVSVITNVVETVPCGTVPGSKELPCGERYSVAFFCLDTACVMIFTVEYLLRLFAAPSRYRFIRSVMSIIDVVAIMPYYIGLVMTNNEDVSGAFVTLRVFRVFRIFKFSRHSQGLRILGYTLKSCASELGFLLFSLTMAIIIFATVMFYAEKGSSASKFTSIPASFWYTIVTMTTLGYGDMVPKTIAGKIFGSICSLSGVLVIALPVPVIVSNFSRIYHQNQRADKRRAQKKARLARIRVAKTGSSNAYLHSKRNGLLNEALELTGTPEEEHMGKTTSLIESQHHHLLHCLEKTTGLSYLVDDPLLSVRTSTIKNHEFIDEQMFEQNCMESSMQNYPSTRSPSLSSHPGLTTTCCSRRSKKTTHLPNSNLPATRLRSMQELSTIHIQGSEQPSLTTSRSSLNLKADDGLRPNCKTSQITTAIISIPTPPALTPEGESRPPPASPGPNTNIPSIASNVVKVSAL

COPD HBEC ALI cultures = experiment: TGF-β1 challenge in ALI, FITC-dextran permeability; format: cell-based, human; conditions: 10 μM pre-treatment 3 days, TGF-β 0.4, 2 and 10 ng/ml for 48 hours, two COPD donors
Description: The paracellular permeability was determined by using fluorescein isothiocyanate labeled 4kD-dextran (Sigma-Aldrich, St. Louis, USA). 18 hours after addition of 0.2 mg FITC-dextran in 200 μL medium to the apical side of the ALI cultures, the fluorescence in the basolateral medium was measured using PHERAstar FSX (excitation 485 nm and emission 520 nm) (BMG LABTECH, Ortenberg, Germany). The time point was chosen for optimal window in the assays as well as practical reasons and has been kept consistent in between different stimulations throughout this work. Data was plotted as fold-change of 0.1% DMSO control.
Permeability was measured after 48 hours.

[2] = test system: deacetylation of α-tubulin; parameters: method as in PMID 28267067; conditions: read-out: cell potency (IC50), inhibition of deacetylation of α-tubulin; cited from earlier work

Substance: ACY-1083
- pIC50 (HDAC8): 4.80
- pIC50 (HDAC10): 4.73
- free fraction [1]: 23%
- stability in human plasma [1]: stable
- activity on Kv4.3 (Kv4.3): > 30 µM
- paracellular permeability after TGF-β challenge (COPD HBEC ALI cultures): decreased it at all concentrations
- pIC50 [2]: 7.00 to 7.52
